Source: patent US20250100996A1, “HETEROCYCLOALKYL AND HETEROARYL COMPOUNDS AND PHARMACEUTICAL COMPOSITIONS THAT MODULATE IKZF2” (Plexium, Inc., priority 2021, published 2025)

What was measured:
IKZF2 (Helios) = molecular target: T1, IKZF2 (Helios) (Homo sapiens, UniProt Q9UKS7); experiment: IKZF2 reporter degradation assay (HEK 293T IKZF2-mNeonGreen reporter cell line); format: cell-based; details: HEK 293T IKZF2-mNeonGreen reporter, 24 hours incubation
T1 construct: Leu-Asp junction (codons ctcgac before the linker); mScarlet (behind P2A) (C, cleaved yes); expressed in transfected cells
T1 sequence (Q9UKS7 whole entry): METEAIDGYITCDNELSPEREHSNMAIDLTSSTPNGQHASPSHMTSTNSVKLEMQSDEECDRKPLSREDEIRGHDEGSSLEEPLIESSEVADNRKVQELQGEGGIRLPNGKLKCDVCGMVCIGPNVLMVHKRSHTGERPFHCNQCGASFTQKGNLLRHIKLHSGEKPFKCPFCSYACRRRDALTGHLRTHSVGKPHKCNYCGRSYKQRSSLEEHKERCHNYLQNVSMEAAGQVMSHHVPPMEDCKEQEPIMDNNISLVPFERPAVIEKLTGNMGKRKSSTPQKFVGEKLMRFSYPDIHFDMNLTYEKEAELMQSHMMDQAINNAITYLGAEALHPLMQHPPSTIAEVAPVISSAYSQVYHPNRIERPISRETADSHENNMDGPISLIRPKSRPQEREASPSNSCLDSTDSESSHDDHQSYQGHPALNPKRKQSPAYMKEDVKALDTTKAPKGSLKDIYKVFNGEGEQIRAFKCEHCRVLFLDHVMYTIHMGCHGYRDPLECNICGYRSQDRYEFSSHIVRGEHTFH
T1 sequence (Q96SW2 whole entry, further chain): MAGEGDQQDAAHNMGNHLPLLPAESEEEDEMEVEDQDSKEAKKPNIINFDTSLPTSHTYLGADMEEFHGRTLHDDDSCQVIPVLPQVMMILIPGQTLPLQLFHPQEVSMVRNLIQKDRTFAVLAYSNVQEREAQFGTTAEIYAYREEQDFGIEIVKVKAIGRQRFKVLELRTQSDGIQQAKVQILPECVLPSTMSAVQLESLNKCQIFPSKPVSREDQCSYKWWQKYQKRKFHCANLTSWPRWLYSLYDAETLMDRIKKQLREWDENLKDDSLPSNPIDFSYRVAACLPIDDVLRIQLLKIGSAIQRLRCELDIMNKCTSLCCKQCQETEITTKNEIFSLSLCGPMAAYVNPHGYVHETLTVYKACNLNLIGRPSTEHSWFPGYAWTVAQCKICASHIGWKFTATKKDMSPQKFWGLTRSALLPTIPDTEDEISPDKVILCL
T1 sequence (Q16531 whole entry partner): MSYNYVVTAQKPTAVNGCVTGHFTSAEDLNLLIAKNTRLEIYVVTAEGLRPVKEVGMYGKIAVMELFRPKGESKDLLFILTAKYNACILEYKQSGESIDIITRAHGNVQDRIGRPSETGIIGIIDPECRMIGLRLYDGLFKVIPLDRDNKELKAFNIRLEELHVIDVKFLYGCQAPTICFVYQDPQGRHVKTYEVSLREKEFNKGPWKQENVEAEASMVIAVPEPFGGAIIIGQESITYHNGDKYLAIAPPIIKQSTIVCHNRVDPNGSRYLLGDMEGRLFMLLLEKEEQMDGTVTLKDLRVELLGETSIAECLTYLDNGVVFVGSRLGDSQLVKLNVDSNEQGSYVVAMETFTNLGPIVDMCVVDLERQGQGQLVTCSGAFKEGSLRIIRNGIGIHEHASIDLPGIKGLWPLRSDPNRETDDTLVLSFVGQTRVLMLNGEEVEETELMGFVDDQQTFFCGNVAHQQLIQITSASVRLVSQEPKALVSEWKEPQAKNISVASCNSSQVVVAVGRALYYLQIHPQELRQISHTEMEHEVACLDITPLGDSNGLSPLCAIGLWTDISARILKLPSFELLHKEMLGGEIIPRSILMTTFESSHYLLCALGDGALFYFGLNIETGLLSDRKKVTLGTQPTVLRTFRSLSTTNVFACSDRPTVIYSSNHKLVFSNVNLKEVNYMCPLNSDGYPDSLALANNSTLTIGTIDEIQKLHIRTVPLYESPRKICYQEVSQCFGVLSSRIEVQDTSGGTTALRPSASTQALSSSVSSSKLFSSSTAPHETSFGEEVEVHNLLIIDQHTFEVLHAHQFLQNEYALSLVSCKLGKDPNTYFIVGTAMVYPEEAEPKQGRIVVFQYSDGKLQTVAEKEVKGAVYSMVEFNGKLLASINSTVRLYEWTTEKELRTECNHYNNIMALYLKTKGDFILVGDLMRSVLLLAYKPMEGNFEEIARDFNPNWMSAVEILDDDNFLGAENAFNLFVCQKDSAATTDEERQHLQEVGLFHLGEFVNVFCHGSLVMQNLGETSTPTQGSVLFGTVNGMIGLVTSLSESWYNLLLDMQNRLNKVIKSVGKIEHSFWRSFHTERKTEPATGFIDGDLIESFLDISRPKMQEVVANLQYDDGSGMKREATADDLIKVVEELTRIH
Source text: Polycistronic plasmids were constructed for the mammalian expression of fluorescent reporter fusions of human transcription factors IKZF1 (Ikaros), IKZF2 (Helios), and IKZF3 (Aiolos). The respective protein sequences had their C-terminal end joined to a GGGGS linker repeated three times followed by mNeonGreen, P2A sequence, and mScarlet. The DNA sequences of the open reading frames are as follows:
IKZF1, IKZF2, and IKZF3 constructs were cloned into the UCOE Hygromycin expression vectors (Millipore Sigma). Reporter constructs were transfected using cationic lipid reagents into adherent HEK 293T cells and stable integrants were selected by treatment with 200 μg/mL hygromycin B. Clonal populations were obtained from the population of stable integrants either by limiting dilution or fluorescence activated cell sorting.
The clonal stable cell lines were maintained under constant 200 μg/mL hygromycin B selection while being passaged for use in the degradation assays. […] The fluorescence intensity of the IKZF1/2/3-mNeonGreen (FITC channel) and mScarlet (PE channel) reporters were routinely analyzed by flow cytometry to confirm consistent expression levels between experiments.
The IKZF1/IKZF2/IKZF3 degradation assays were carried out by harvesting the HEK 293T reporter cell lines and resuspending the cells in media formulated for reduced background fluorescence (FluoroBrite; Thermo Fisher). The respective cell lines were seeded at a density of 4000 cells/well into black-walled 384-well optical grade assay tissue culture plates. The cells were incubated overnight at 37° C. to allow for attachment to the assay plate. Dilutions of the compounds were prepared in DMSO from 10 mM compound stocks. The assay plates were treated with appropriate concentrations of the compounds by dispensing the DMSO dilutions in quadruplicate wells with an upper limit of 0.5% final DMSO.
After 24 hours incubation with the compounds, the assay plates were imaged on an ImageXpress Pico microscopy system (cells maintained at 37° C. during imaging) to obtain the fluorescent readouts. The assay plates were imaged in the FITC and Tetramethylrhodamine (TRITC) channels to obtain the mNeonGreen fluorescence intensity (reporter degradation data) and mScarlet fluorescence intensity (for cell segmentation). 293T-IKZF1 and 293T-IKZF3 reporter cell lines were imaged with exposures of 500 milliseconds (ms) for both FITC and TRITC channels, while the 293T-IKZF2 reporter cell line was imaged with exposures of 1000 ms for FITC and 1250 ms for TRITC. The resulting data was analyzed with Cell Reporter Xpress software using the 2-channel cell scoring analysis with a “percent positive” readout. The TRITC channel was selected for the “nuclei” segmentation with a threshold of 20 while the FITC channel was selected for the “Marker 1” segmentation and a threshold of 100 for the IKZF1 and IKZF3 reporter lines. […] The minimum segmentation width was set to 6 micrometers and the maximum segmentation width was set to 15 micrometers for all cell lines. The DC50 calculations were determined by regression to best fit four-parameter logistic curves using GraphPad Prism.

[1] = molecular target: T2, human E3 ligase component cereblon (CRBN) (Homo sapiens, UniProt Q96SW2); experiment: Cereblon (CRBN) target engagement, NanoBRET TE Intracellular E3 Ligase Assay in transfected HEK-293T cells; details: read-out: CRBN Binding EC50
T2 construct: host or cells: HEK293T
T2 sequence (Q96SW2 whole entry): as the sequence (Q96SW2 whole entry, further chain) above
T2 sequence (Q16531 whole entry partner): as the sequence (Q16531 whole entry partner) above
Protocol: HEK293T cells were harvested ca. 75% confluent with trypsin and plated (500,000 cells/well) in a 6-well tissue culture plate in 2 mL of Dulbecco's Modified Eagle Medium (DMEM)^+10% Fetal Bovine Serum (FBS) and incubated overnight at 37° C.
The NanoLuc-CRBN fusion vector (Nluc-CRBN; Promega) contains the coding region of human E3 ligase component cereblon (CRBN) fused to the C-terminus of the NanoLuc luciferase coding region. A mixture of 10 ng Nluc-CRBN and 990 ng DDB1 Expression Vector (Promega) was added to 125 μL Opti-Minimum Essential Medium (Opti-MEM™; Thermo Fisher) along with […] P3000 reagent (Thermo Fisher) in a 1.5 mL epppendorf tube. This solution was added to Lipofectamine 3000 transfection reagent (5 μL; Thermo Fisher) in Opti-MEM (125 μL), mixed well, and incubated for 15 minutes at room temperature. The transfection mixture was added dropwise to cells and incubated overnight at 37° C., 5% CO2. Following transfection, cells were washed once with PBS, and trypsin (250 μL) was added and incubated 30-45 see to dislodge cells. Complete media (2 mL) was added to resuspend cells to form a single cell suspension. Cells were centrifuged at 320×g for 5 min at room temperature, the supernatant was removed, and the cell pellet resuspended in Opti-MEM (3 mL; wash step repeated ×2). After final resuspension in 5 mL Opti-MEM, cells were counted and resuspended at 200,000 cells/mL in Opti-MEM.
Cereblon target engagement was monitored by Bioluminescence Resonance Energy Transfer (BRET) in transfected HEK-293T cells using the NanoBRET TE Intracellular E3 Ligase Assay (Promega). Briefly, 384-well plates (white opaque plates, Corning 3574, low binding surface) were seeded with transfected HEK-293T cells (38 μL/well). 2 μL of 10 μM CRBN tracer (diluted 1:5 in Tracer Dilution Buffer) was added to each well. Plates were centrifuged at 320×g for 1 min at room temperature. Test compounds were added in a 11-point dilution series (typically 10 μM to 100 pM) using a TECAN D300e Digital Dispenser. Plates were shaken for 2 minutes on a microplate shaker to mix compounds. Plates were centrifuged at 320×g for 1 min at room temperature, and subsequently incubated for 2 hours at 37° C.
After incubation, plates were allowed to cool to room temperature for 15 minutes. 20 μL of 3× Complete NanoBRET™ Nano-Glo® Substrate plus Inhibitor Solution (Promega, 1:166 Substrate and 1:500 dilution of Extracellular NanoLuc® Inhibitor diluted in Opti-MEM) were added to each well. Plates were incubated with shaking at room temperature for 3 minutes covered with foil. Plates were read on a CLARIOstar microplate reader (BMG LabTech), measuring at 450 nm (donor emission) and 610 nm (acceptor emission). The IC50 values were determined by regression to best fit four-parameter logistic curves using GraphPad Prism.

Row | DC50 (IKZF2 (Helios)) | EC50 [1] | SMILES
1 | > 30000 nM | 6 nM | O=C1CCC(N2Cc3cc(O[C@@H]4CCCC[C@H]4N4CC(c5ncc(Br)cn5)C4)ccc3C2=O)C(=O)N1 (single isomer, unassigned) [Compound 106-B]
2 |  | > 10000 nM | Cc1cnc(C2CN([C@H]3CCCC3Oc3ccc4c(c3)CN(C35CC(C3)C(=O)NC5=O)C4=O)C2)o1 (mixture of isomers) [Compound 144-B, Rac-1-(5-(((cis)-2-(3-(5-methyloxazol-2-yl)azetidin-1-yl)cyclopentyl)oxy)-1-oxoisoindolin-2-yl)-3-azabicyclo[3.1.1]heptane-2,4-dione]
3 | > 30000 nM | 4 nM | O=C1CCC(N2Cc3cc(O[C@@H]4CCCC[C@@H]4N4CC(c5ncc(C(F)(F)F)cn5)C4)ccc3C2=O)C(=O)N1 (single isomer, unassigned) [Compound 118-B]
4 | > 30000 nM | 24 nM | O=C1CCC(N2Cc3cc(O[C@@H]4CCCC[C@@H]4N4CC(c5ncc(C(F)(F)F)cn5)C4)ccc3C2=O)C(=O)N1 (single isomer, unassigned) [Compound 119-B]
5 | > 30000 nM | 29 nM | O=C1CCC(N2Cc3cc(O[C@@H]4CCCC[C@@H]4N4CC(c5cncc(Cl)c5)C4)ccc3C2=O)C(=O)N1 (stereo partly drawn) [Compound 105-B, 3-(5-(((1R,2S)-2-(3-(5-chloropyridin-3-yl)azetidin-1-yl)cyclohexyl)oxy)-1-oxoisoindolin-2-yl)piperidine-2,6-dione]
6 | > 30000 nM | 20 nM | O=C1CCC(N2Cc3cc(O[C@H]4CCCC[C@H]4N4CC(c5cncc(Cl)c5)C4)ccc3C2=O)C(=O)N1 (single isomer, unassigned) [Compound 114-B]
7 | > 30000 nM | 38 nM | O=C1CCC(N2Cc3cc(O[C@@H]4CCCC[C@@H]4N4CC(c5ccncc5F)C4)ccc3C2=O)C(=O)N1 (single isomer, unassigned) [Compound 104-B]
8 |  | > 10000 nM | Cc1cnc(C2CN([C@H]3CCCC[C@@H]3Oc3ccc4c(c3)CN(C35CC(C3)C(=O)NC5=O)C4=O)C2)o1 (racemic) [Compound 150-B, Rac-1-(5-(((trans)-2-(3-(5-methyloxazol-2-yl)azetidin-1-yl)cyclohexyl)oxy)-1-oxoisoindolin-2-yl)-3-azabicyclo[3.1.1]heptane-2,4-dione]
9 |  | > 10000 nM | O=C1NC(=O)C2(N3Cc4cc(O[C@@H]5CCCC[C@@H]5N5CC(c6ccncc6)C5)ccc4C3=O)CC1C2 (racemic) [Compound 159-B, Rac-1-(1-oxo-5-(((cis)-2-(3-(pyridin-4-yl)azetidin-1-yl)cyclohexyl)oxy)isoindolin-2-yl)-3-azabicyclo[3.1.1]heptane-2,4-dione]
10 | > 30000 nM | 11 nM | O=C1CCC(N2Cc3cc(O[C@@H]4CCCC[C@@H]4N4CC(c5ccc(Cl)cn5)C4)ccc3C2=O)C(=O)N1 (single isomer, unassigned) [Compound 101-B]
11 |  | > 10000 nM | O=C1NC(=O)C2(N3Cc4cc(OC5CCC[C@@H]5N5CC(c6ncc(Cl)cn6)C5)ccc4C3=O)CC1C2 (mixture of isomers) [Compound 156-B, Rac-1-(5-(((cis)-2-(3-(5-chloropyrimidin-2-yl)azetidin-1-yl)cyclopentyl)oxy)-1-oxoisoindolin-2-yl)-3-azabicyclo[3.1.1]heptane-2,4-dione]
12 |  | > 10000 nM | O=C1NC(=O)C2(N3Cc4cc(OC5CCC[C@@H]5N5CC(c6ncc(Cl)cn6)C5)ccc4C3=O)CC1C2 (mixture of isomers) [Compound 157-B, Rac-1-(5-(((trans)-2-(3-(5-chloropyrimidin-2-yl)azetidin-1-yl)cyclopentyl)oxy)-1-oxoisoindolin-2-yl)-3-azabicyclo[3.1.1]heptane-2,4-dione]
13 | > 30000 nM | 22 nM | O=C1CCC(N2Cc3cc(O[C@H]4CCCC[C@@H]4N4CC(c5ncc(Br)cn5)C4)ccc3C2=O)C(=O)N1 (single isomer, unassigned) [Compound 107-B]
14 | > 30000 nM | 29 nM | O=C1CCC(N2Cc3cc(O[C@@H]4CCCC[C@@H]4N4CC(c5ncncc5Cl)C4)ccc3C2=O)C(=O)N1 (single isomer, unassigned) [Compound 94-B]
15 | > 30000 nM | 9 nM | O=C1CCC(N2Cc3cc(O[C@@H]4CCCC[C@H]4N4CC(c5ncc(Cl)cn5)C4)ccc3C2=O)C(=O)N1 (single isomer, unassigned) [Compound 109-B]
16 |  | > 10000 nM | O=C1NC(=O)C2(N3Cc4cc(O[C@H]5CCCC[C@@H]5N5CC(c6ccncc6)C5)ccc4C3=O)CC1C2 (racemic) [Compound 160-B, Rac-1-(1-oxo-5-(((trans)-2-(3-(pyridin-4-yl)azetidin-1-yl)cyclohexyl)oxy)isoindolin-2-yl)-3-azabicyclo[3.1.1]heptane-2,4-dione]
17 | > 30000 nM | 13 nM | O=C1CCC(N2Cc3cc(O[C@H]4CCCC[C@H]4N4CC(c5ncc(C(F)(F)F)cn5)C4)ccc3C2=O)C(=O)N1 (single isomer, unassigned) [Compound 122-B]
18 |  | > 10000 nM | Cc1cnc(C2CN([C@H]3CCCC[C@H]3Oc3ccc4c(c3)CN(C35CC(C3)C(=O)NC5=O)C4=O)C2)o1 (racemic) [Compound 149-B, Rac-1-(5-(((cis)-2-(3-(5-methyloxazol-2-yl)azetidin-1-yl)cyclohexyl)oxy)-1-oxoisoindolin-2-yl)-3-azabicyclo[3.1.1]heptane-2,4-dione]
19 | > 30000 nM | 30 nM | O=C1CCC(N2Cc3cc(O[C@@H]4CCCC[C@@H]4N4CC(c5ccncc5Cl)C4)ccc3C2=O)C(=O)N1 (single isomer, unassigned) [Compound 96-B]
20 |  | 88 nM | O=C1CCC(N2Cc3cc(OC4CCCC4N4CC(c5ncc(F)cn5)C4)ccc3C2=O)C(=O)N1 (stereo not drawn) [Compound 158-B, 3-(5-((2-(3-(5-fluoropyrimidin-2-yl)azetidin-1-yl)cyclopentyl)oxy)-1-oxoisoindolin-2-yl)piperidine-2,6-dione]
21 |  | > 10000 nM | Cc1cnc(C2CN([C@H]3CCCC3Oc3ccc4c(c3)CN(C35CC(C3)C(=O)NC5=O)C4=O)C2)o1 (mixture of isomers) [Compound 145-B, Rac-1-(5-(((trans)-2-(3-(5-methyloxazol-2-yl)azetidin-1-yl)cyclopentyl)oxy)-1-oxoisoindolin-2-y1)-3-azabicyclo[3.1.1]heptane-2,4-dione]
